Assay results from patent US20100227858A1, “TRISUBSTITUTED PYRIMIDINE DERIVATIVES FOR THE TREATMENT OF PROLIFERATIVE DISEASES” (ASTRAZENECA AB, priority 2007, published 2010).

These compounds were tested against recombinant mTOR (Homo sapiens, UniProt P42345) (assay: In vitro mTOR kinase assay, Test (a)(i) (AlphaScreen)). Settings: enzyme assay; values may represent the average of two or more measurements; read-out: Test (a)(i) IC50.
Assay type: biochemical
Description: (a)(i) In Vitro mTOR Kinase Assay
The HEK293 FLAG-tagged mTOR (1362-2549) stable cell line was routinely maintained at 37° C. with 5% CO2 up to a confluency of 70-90% in Dulbecco's modified Eagle's growth medium (DMEM; Invitrogen Limited, Paisley, UK Catalogue No. 41966-029) containing 10% heat-inactivated foetal calf serum (FCS; Sigma, Poole, Dorset, UK, Catalogue No. F0392), 1% L-glutamine (Gibco, Catalogue No. 25030-024) and 2 mg/ml Geneticin (G418 sulfate; Invitrogen Limited, UK Catalogue No. 10131-027). Following expression in the mammalian HEK293 cell line, expressed protein was purified using the FLAG epitope tag using standard purification techniques.
A 30 μl mixture of recombinant purified mTOR enzyme, 1 μM biotinylated peptide substrate (Biotin-Ahx-[…]NH2; Bachem UK Ltd), ATP (20 μM) and a buffer solution [comprising Tris-HCl pH7.4 buffer (50 mM), EGTA (0.1 mM), bovine serum albumin (0.5 mg/mL), DTT (1.25 mM) and manganese chloride (10 mM)] was agitated at room temperature for 90 minutes.
These assay solutions were incubated for 2 hours at room temperature.
Phosphorylated biotinylated peptide is formed in situ as a result of mTOR mediated phosphorylation. The phosphorylated biotinylated peptide that is associated with AlphaScreen Streptavidin donor beads forms a complex with the p70 S6 Kinase (T389) 1A5 Monoclonal Antibody that is associated with Alphascreen Protein A acceptor beads. […] Accordingly, the presence of mTOR kinase activity results in an assay signal. In the presence of an mTOR kinase inhibitor, signal strength is reduced.

recombinant mTOR, sequence (P42345 1362-2549): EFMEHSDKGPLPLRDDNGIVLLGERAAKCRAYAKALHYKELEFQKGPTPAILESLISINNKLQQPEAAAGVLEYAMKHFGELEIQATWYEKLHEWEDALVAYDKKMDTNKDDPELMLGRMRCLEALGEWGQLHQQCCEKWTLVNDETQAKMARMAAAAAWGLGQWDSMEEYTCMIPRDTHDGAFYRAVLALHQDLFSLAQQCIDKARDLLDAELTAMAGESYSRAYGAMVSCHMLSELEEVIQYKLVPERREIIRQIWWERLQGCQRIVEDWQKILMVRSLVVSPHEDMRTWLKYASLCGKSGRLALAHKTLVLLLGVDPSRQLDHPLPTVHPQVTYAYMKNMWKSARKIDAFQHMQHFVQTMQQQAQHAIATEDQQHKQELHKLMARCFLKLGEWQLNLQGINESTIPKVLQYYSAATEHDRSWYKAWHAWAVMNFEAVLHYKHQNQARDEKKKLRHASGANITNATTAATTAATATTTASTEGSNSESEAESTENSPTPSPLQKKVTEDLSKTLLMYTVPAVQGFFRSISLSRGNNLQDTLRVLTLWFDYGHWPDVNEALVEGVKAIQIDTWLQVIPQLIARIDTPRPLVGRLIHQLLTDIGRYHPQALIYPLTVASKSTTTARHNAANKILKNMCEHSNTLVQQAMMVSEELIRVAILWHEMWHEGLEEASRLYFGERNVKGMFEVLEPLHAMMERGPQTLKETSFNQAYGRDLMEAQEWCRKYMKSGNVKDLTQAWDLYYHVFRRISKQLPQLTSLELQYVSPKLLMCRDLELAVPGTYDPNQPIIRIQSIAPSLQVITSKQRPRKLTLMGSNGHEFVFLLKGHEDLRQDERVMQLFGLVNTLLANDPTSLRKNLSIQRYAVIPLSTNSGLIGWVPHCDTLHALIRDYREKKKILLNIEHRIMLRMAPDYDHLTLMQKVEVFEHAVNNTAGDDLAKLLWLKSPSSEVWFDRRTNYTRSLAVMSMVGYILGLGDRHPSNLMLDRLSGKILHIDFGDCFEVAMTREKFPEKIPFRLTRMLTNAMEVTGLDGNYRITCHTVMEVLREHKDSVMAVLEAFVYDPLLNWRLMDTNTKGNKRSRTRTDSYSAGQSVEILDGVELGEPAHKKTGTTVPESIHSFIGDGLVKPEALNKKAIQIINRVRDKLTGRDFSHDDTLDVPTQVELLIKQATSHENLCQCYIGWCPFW

**Q.** `C[C@H]1COCCN1c1cc(CS(C)(=O)=O)nc(-c2ccc(-c3cn[nH]c3)cc2)n1` [Example 31, 4-[(3S)-3-Methylmorpholin-4-yl]-6-(methylsulfonylmethyl)-2-[4-(1H-pyrazol-4-yl)phenyl]pyrimidine] was tested. Which IC50 did it give?
**A.** 0.99 µM

**Q.** For `C[C@H]1COCCN1c1cc(CS(=O)(=O)c2ccccc2)nc(-c2ccc3[nH]ccc3c2)n1` [Example 45, 5-[4-(benzenesulfonylmethyl)-6-[(3S)-3-methylmorpholin-4-yl]pyrimidin-2-yl]-1H-indole], which IC50 is on record?
**A.** 0.119 µM

**Q.** For `CC(=O)Nc1cc(C(=O)Nc2nc(N3CCOC[C@@H]3C)cc(N3CCOC[C@@H]3C)n2)ccn1` [Example 15, 2-Acetamido-N-[4,6-bis[(3S)-3-methylmorpholin-4-yl]pyrimidin-2-yl]pyridine-4-carboxamide], which IC50 is on record?
**A.** 9.55 µM

**Q.** Which IC50 does the source give for `COc1ccc(C(=O)Nc2nc(N3CCOC[C@@H]3C)cc(N3CCOC[C@@H]3C)n2)cc1` [Example 1, N-[4,6-Bis[(3S)-3-methylmorpholin-4-yl]pyrimidin-2-yl]-4-methoxy-benzamide] here?
**A.** 4.65 µM

**Q.** How did the IC50 turn out when `C[C@@H]1COCCN1c1cc(CS(C)(=O)=O)nc(-c2ccc3[nH]ccc3c2)n1` [Example 25, 5-[4-[(3R)-3-methylmorpholin-4-yl]-6-(methylsulfonylmethyl)pyrimidin-2-yl]-1H-indole] was run?
**A.** 0.385 µM

**Q.** Which IC50 does the source give for `COc1cccc(C(=O)Nc2cc(N3CCOC[C@@H]3C)nc(N3CCOC[C@@H]3C)n2)c1` [Example 3, N-[2,6-Bis[(3S)-3-methylmorpholin-4-yl]pyrimidin-4-yl]-3-methoxy-benzamide] here?
**A.** 0.234 µM

**Q.** `C[C@H]1COCCN1c1cc(CS(C)(=O)=O)nc(-c2ccc3cc(C(N)=O)[nH]c3c2)n1` [Example 38, 6-[4-[(3S)-3-Methylmorpholin-4-yl]-6-(methylsulfonylmethyl)pyrimidin-2-yl]-1H-indole-2-carboxamide] was tested. Which IC50 did it give?
**A.** 5.35 µM

**Q.** How did the IC50 turn out when `COc1cc(C(=O)Nc2nc(N3CCOC[C@@H]3C)cc(N3CCOC[C@@H]3C)n2)ccn1` [Example 12, N-[4,6-Bis[(3S)-3-methylmorpholin-4-yl]pyrimidin-2-yl]-2-methoxy-pyridine-4-carboxamide] was run?
**A.** 4 µM

**Q.** Which IC50 does the source give for `C[C@H]1COCCN1c1cc(CS(C)(=O)=O)nc(-c2ccc3[nH]c(C(N)=O)cc3c2)n1` [Example 37, 5-[4-[(3S)-3-Methylmorpholin-4-yl]-6-(methylsulfonylmethyl)pyrimidin-2-yl]-1H-indole-2-carboxamide] here?
**A.** 0.336 µM

**Q.** For `COc1ccc(C(=O)Nc2cc(N3CCOC[C@@H]3C)nc(N3CCOC[C@@H]3C)n2)cc1C(F)(F)F` [Example 2, N-[2,6-Bis[(3S)-3-methylmorpholin-4-yl]pyrimidin-4-yl]-4-methoxy-3-(trifluoromethyl)benzamide], which IC50 is on record?
**A.** 0.236 µM

**Q.** `COc1ccccc1C(=O)Nc1nc(N2CCOC[C@@H]2C)cc(N2CCOC[C@@H]2C)n1` [Example 14, N-[4,6-Bis[(3S)-3-methylmorpholin-4-yl]pyrimidin-2-yl]-2-methoxy-benzamide] was tested. Which IC50 did it give?
**A.** 0.886 µM

**Q.** For `C[C@H]1COCCN1c1cc(N2CCOC[C@@H]2C)nc(NC(=O)c2ccc(NC(=O)Nc3ccccc3)cc2)n1` [Example 18, N-[4,6-Bis[(3S)-3-methylmorpholin-4-yl]pyrimidin-2-yl]-4-(phenylcarbamoylamino)benzamide], which IC50 is on record?
**A.** 1.12 µM

**Q.** How did the IC50 turn out when `C[C@@H]1CN(c2nc(CS(C)(=O)=O)cc(N3CCOC[C@@H]3C)n2)C[C@H](C)O1` [Example 20, 2-[(2R,6S)-2,6-Dimethylmorpholin-4-yl]-4-[(3S)-3-methylmorpholin-4-yl]-6-(methylsulfonylmethyl)pyrimidine] was run?
**A.** 1.65 µM

**Q.** Which IC50 does the source give for `C[C@H]1COCCN1c1cc(CS(C)(=O)=O)nc(-c2ccc3c(C(N)=O)c[nH]c3c2)n1` [Example 36, 6-[4-[(3S)-3-Methylmorpholin-4-yl]-6-(methylsulfonylmethyl)pyrimidin-2-yl]-1H-indole-3-carboxamide] here?
**A.** 1.64 µM

**Q.** `CC(=O)Nc1cc(C(=O)Nc2cc(N3CCOC[C@@H]3C)nc(N3CCOC[C@@H]3C)n2)ccn1` [Example 10, 2-Acetamido-N-[2,6-bis[(3S)-3-methylmorpholin-4-yl]pyrimidin-4-yl]pyridine-4-carboxamide] was tested. Which IC50 did it give?
**A.** 26.4 µM

**Q.** `C[C@H]1COCCN1c1cc(CS(C)(=O)=O)nc(-c2ccc3[nH]ccc3c2)n1` [Example 24] was tested. Which IC50 did it give?
**A.** 0.303 µM

**Q.** Which IC50 does the source give for `CCS(=O)(=O)Cc1cc(N2CCOC[C@H]2C)nc(-c2ccc3[nH]ccc3c2)n1` [Example 29, 5-[4-(ethylsulfonylmethyl)-6-[(3R)-3-methylmorpholin-4-yl]pyrimidin-2-yl]-1H-indole] here?
**A.** 0.351 µM

**Q.** `COc1cc(C(=O)Nc2cc(N3CCOC[C@@H]3C)nc(N3CCOC[C@@H]3C)n2)ccn1` [Example 7, N-[2,6-Bis[(3S)-3-methylmorpholin-4-yl]pyrimidin-4-yl]-2-methoxy-pyridine-4-carboxamide] was tested. Which IC50 did it give?
**A.** 2.84 µM

**Q.** With `COc1cccc(C(=O)Nc2nc(N3CCOC[C@@H]3C)cc(N3CCOC[C@@H]3C)n2)c1` [Example 5, N-[4,6-Bis[(3S)-3-methylmorpholin-4-yl]pyrimidin-2-yl]-3-methoxy-benzamide] as the compound, how does the IC50 read?
**A.** 0.364 µM

**Q.** With `C[C@H]1COCCN1c1cc(CS(=O)(=O)c2ccccc2)nc(-c2cccc3[nH]ccc23)n1` [Example 44, 4-[4-(Benzenesulfonylmethyl)-6-[(3S)-3-methylmorpholin-4-yl]pyrimidin-2-yl]-1H-indole] as the compound, how does the IC50 read?
**A.** 0.366 µM

**Q.** Which IC50 does the source give for `CCC(C)S(=O)(=O)Cc1cc(N2CCOC[C@@H]2C)nc(-c2ccc3[nH]ccc3c2)n1` (stereo partly drawn) [Example 26, 5-[4-(Butan-2-ylsulfonylmethyl)-6-[(3S)-3-methylmorpholin-4-yl]pyrimidin-2-yl]-1H-indole] here?
**A.** 1.38 µM

**Q.** With `C[C@H]1COCCN1c1cc(NC(=O)c2ccc(NC(=O)Nc3ccccc3)cc2)nc(N2CCOC[C@@H]2C)n1` [Example 17, N-[2,6-Bis[(3S)-3-methylmorpholin-4-yl]pyrimidin-4-yl]-4-(phenylcarbamoylamino)benzamide] as the compound, how does the IC50 read?
**A.** 9.39 µM

**Q.** `C[C@H]1COCCN1c1cc(C(C)(C)S(C)(=O)=O)nc(-c2ccc3[nH]ccc3c2)n1` [Example 41, 5-[4-[(3S)-3-methylmorpholin-4-yl]-6-(2-methylsulfonylpropan-2-yl)pyrimidin-2-yl]-1H-indole] was tested. Which IC50 did it give?
**A.** 0.117 µM

**Q.** With `C[C@H]1COCCN1c1cc(CS(C)(=O)=O)nc(-c2cccc(-c3cn[nH]c3)c2)n1` [Example 32, 4-[(3S)-3-Methylmorpholin-4-yl]-6-(methylsulfonylmethyl)-2-[3-(1H-pyrazol-4-yl)phenyl]pyrimidine] as the compound, how does the IC50 read?
**A.** 0.437 µM

**Q.** `C[C@H]1COCCN1c1cc(C(C)(C)S(C)(=O)=O)nc(-c2cccc3[nH]ccc23)n1` [Example 42, 4-[4-[(3S)-3-methylmorpholin-4-yl]-6-(2-methylsulfonylpropan-2-yl)pyrimidin-2-yl]-1H-indole] was tested. Which IC50 did it give?
**A.** 0.335 µM

**Q.** Which IC50 does the source give for `C[C@H]1COCCN1c1cc(CS(=O)(=O)c2ccccc2)nc(-c2ccc3cc[nH]c3c2)n1` [Example 47, 6-[4-(benzenesulfonylmethyl)-6-[(3S)-3-methylmorpholin-4-yl]pyrimidin-2-yl]-1H-indole] here?
**A.** 0.512 µM

**Q.** For `CC(=O)Nc1ccc(C(=O)Nc2cc(N3CCOC[C@@H]3C)nc(N3CCOC[C@@H]3C)n2)cn1` [Example 8, 6-Acetamido-N-[2,6-bis[(3S)-3-methylmorpholin-4-yl]pyrimidin-4-yl]pyridine-3-carboxamide], which IC50 is on record?
**A.** 1.78 µM

**Q.** How did the IC50 turn out when `C[C@H]1COCCN1c1cc(CS(C)(=O)=O)nc(Nc2cc[nH]n2)n1` [Example 30, 4-[(3S)-3-Methylmorpholin-4-yl]-6-(methylsulfonylmethyl)-N-(1H-pyrazol-3-yl)pyrimidin-2-amine] was run?
**A.** 0.897 µM

**Q.** How did the IC50 turn out when `C[C@H]1COCCN1c1cc(CS(C)(=O)=O)nc(N2CCCC(O)C2)n1` (stereo partly drawn) [Example 21, 1-[4-[(3S)-3-Methylmorpholin-4-yl]-6-(methylsulfonylmethyl)pyrimidin-2-yl]piperidin-3-ol] was run?
**A.** 2.3 µM

**Q.** How did the IC50 turn out when `C[C@H]1COCCN1c1cc(C(C)(C)S(C)(=O)=O)nc(-c2ccc3cc[nH]c3c2)n1` [Example 43, 6-[4-[(3S)-3-methylmorpholin-4-yl]-6-(2-methylsulfonylpropan-2-yl)pyrimidin-2-yl]-1H-indole] was run?
**A.** 0.88 µM

**Q.** How did the IC50 turn out when `C[C@H]1COCCN1c1cc(C(C)(C)S(C)(=O)=O)nc(-c2ccc3[nH]cnc3c2)n1` [Example 39, 5-[4-[(3S)-3-Methylmorpholin-4-yl]-6-(2-methylsulfonylpropan-2-yl)pyrimidin-2-yl]-1H-benzoimidazole] was run?
**A.** 0.192 µM

**Q.** How did the IC50 turn out when `CC(C)S(=O)(=O)Cc1cc(N2CCOC[C@H]2C)nc(-c2ccc3[nH]ccc3c2)n1` [Example 28, 5-[4-[(3R)-3-methylmorphlin-4-yl]-6-(propan-2-ylsulfonylmethyl)pyrimidin-2-yl]-1H-indole] was run?
**A.** 0.626 µM

**Q.** How did the IC50 turn out when `COc1ccc(C(=O)Nc2nc(N3CCOC[C@@H]3C)cc(N3CCOC[C@@H]3C)n2)cc1F` [Example 16, N-[4,6-Bis[(3S)-3-methylmorpholin-4-yl]pyrimidin-2-yl]-3-fluoro-4-methoxy-benzamide] was run?
**A.** 2.47 µM

**Q.** With `COc1ccc(C(=O)Nc2cc(N3CCOC[C@@H]3C)nc(N3CCOC[C@@H]3C)n2)cc1F` [Example 11, N-[2,6-Bis[(3S)-3-methylmorpholin-4-yl]pyrimidin-4-yl]-3-fluoro-4-methoxy-benzamide] as the compound, how does the IC50 read?
**A.** 3.58 µM
